Data reported in patent US7094754B2, “Anti-aging and wound healing compounds” (Kimberly-Clark Worldwide, Inc., priority 2001, dated 2006).

Key:
pro-MMP-9 = pro-MMP-9 (Homo sapiens, UniProt P14780); experiment: Anti-activation (splicing) assay, pro-MMP-9 with stromilysin, HPLC; format: biochemical; conditions: 0.5 μM or 1.0 μM peptide, 80 minute time course
Procedure: FIG. 12 illustrates the conversion of pro-MMP-9 into N-terminal and C-terminal domains by stromilysin. […] At the times indicated, an aliquot was removed and subjected to HPLC. The pro-MMP peak area was integrated and was set to 100 percent for the zero time point sample.
The assay measures how much proenzyme is converted into mature matrix metalloproteinase. Proenzyme pro-MMP-9 (100 μg) was mixed with 0.5 μg of stromilysin in PBS. The reaction was incubated at 35° C. Aliquots were removed from the reaction over an 80 minute time course. […] The zero (injection) time point was a single peak that elutes from the column in approximately 750 seconds. This peak reduces in size as a function of time, and two new peaks appear. The first peak elutes at approximately 800 seconds, and represents the mature form of MMP-9. The second peak elutes at approximately 1100 seconds, and corresponds to the N-terminal pro-domain fragment. Peak areas were determined by integrating over the elution profile, and the percent area changes were plotted.
The first peak, eluting at approximately 700 seconds, is pro-MMP-9. As the splicing reaction proceeds, this peak decreases in intensity (as marked with the downwards arrow), and two new peaks appear. The first new peak, eluting at approximately 800 seconds, is mature and active MMP-9. The second new peak, eluting at approximately 1050 seconds, is the prodomain. […]

[1] = tested on: normal human dermal fibroblasts (Clonetics, CC-2509); experiment: Fibroblast proliferation assay; format: cell-based; conditions: 28 hours
Procedure: A human skin fibroblast cell line (Clonetics, Walkersville, Md., normal human dermal fibroblasts, neonatal, catalog number CC-2509) was tested to ascertain whether exposure to a peptide of the invention would stimulate cellular proliferation. The proliferative response of the human skin fibroblast cell line to thel 9mer peptide (SEQ ID NO:11) was measured in a 96-well assay system using serum-free medium as a control. […] Plates were incubated for 24 hours at 37° C. in a humidified 5% CO2 atmosphere. After incubation, the medium was aspirated and the wells were rinsed twice with 100 μl of serum-free DMEM. […] In addition, 100 μl of vehicle (serum-free DMEM) was added to 10 wells as control. All wells were incubated for 28 hours at 37° C. in a humidified, 5% CO2 atmosphere. After incubation, 20 μl of Cell Titer 96 Aqueous One Solution was added to all wells. The plates were swirled gently and placed back in the incubator for 45 minutes and spectrophotometric absorbance was read at 490 nm. Results were analyzed statistically using one-way ANOVA.

[2] = tested on: normal human dermal fibroblasts (NHDF); experiment: NHDF migration assay (48-well chemotaxis chamber); format: cell-based
Procedure: Normal, human dermal fibroblasts (NHDF) were obtained from Biowhittaker, (Walkersville, Md.) and propagated in T75 flasks in FBM media (500 mL, Biowhittaker) containing insulin, hFGF-b, GA-1000, and fetal bovine serum (10 mL) for up to 12 passages. For the migration assay, NHDF were washed once with 10 mL of Hank's buffered saline solution (HBSS). Three milliliters of trypsin (0.25%) in EDTA were added to the T75 flask for no more than five minutes to remove NHDF from the flask. NHDF in trypsin solution were added to 7 mL of FBM with no supplements added. NHDF were centrifuged for 5 minutes, and the supernatant was removed. NHDF were resuspended in 10 mL of FBM for counting. NHDF were centrifuged for another 5 minutes, and the supernatant was removed. NHDF were resuspended at 1×10^6 cells per mL in FBM without supplements. It was important to use FBM media only in migration assays because the complete media contains fibroblast growth factor and serum, both of which will trigger migration of fibroblasts.
Peptides were synthesized and purified by the Microchemical Facility at Emory University or by SigmaGenesis. All peptides were analyzed by mass spectrometry after HPLC to assess purity. Approximately 0.5–2.0 milligrams of peptide were used to make fresh stock solutions (5 mg/mL in PBS) for each migration assay. The peptide stock solutions in PBS were used to make more dilute solutions (1 mg/mL, 100 μg/mL, 10 μg/mL, 1 μg/mL, 100 ng/mL, 10 ng/mL) in FBM (without supplements) for the migration assays.
Polyvinylpyrrolidone-free polycarbonate membranes with […] pores (Neuroprobe, Inc., Gaithersburg, Md.) were washed with 90% ethanol for 15 minutes and rinsed four times with deionized water. Membranes were then placed into a glass dish containing an aqueous solution of 5 μg/mL gelatin. The glass dish was placed in to a water bath at about 90° C. for one hour. Membranes were removed from the gelatin solution and were allowed to dry for one hour in the 37° C. incubator.
A 48-well chemotaxis chamber (Neuroprobe, Inc., Gaithersburg, Md.) (see FIG. 20) was used for the migration assays. Twenty-eight/μL of each test solution were added to the bottom wells of the chamber in quadruplicate. A gelatin-treated membrane was placed carefully on top of the bottom wells. The gasket and top part of chamber were then placed carefully on top of the membrane. The apparatus was tightened using six thumbscrews. A solution of NHDF containing an estimated cell density (2×10^5 cells per mL) was made by adding 320 μL of the 1×10^6 cells per mL solution to 1.28 mL of FBM (no supplements). Fifty microliters of the 2×10^5 cells per mL NHDF solution were added to the top part of each well in the chamber. The chamber was placed in the incubator at 37° C./5% CO2 for three hours. The chamber was removed, the thumbscrews were removed, and the chamber was turned upside down on a paper towel. […] The membrane was carefully removed. […] The membrane was fixed with methanol and stained using the Diff-Quik Staining Solutions I and II. The nuclei of NHDF are stained purple. The membrane was mounted on a glass slide using cedarwood immersion oil and a cover slip. […] The average number of migrated NHDF in the negative control was subtracted from the experimental (peptide) data and positive control data.

Sequence of pro-MMP-9 (P14780 20-707): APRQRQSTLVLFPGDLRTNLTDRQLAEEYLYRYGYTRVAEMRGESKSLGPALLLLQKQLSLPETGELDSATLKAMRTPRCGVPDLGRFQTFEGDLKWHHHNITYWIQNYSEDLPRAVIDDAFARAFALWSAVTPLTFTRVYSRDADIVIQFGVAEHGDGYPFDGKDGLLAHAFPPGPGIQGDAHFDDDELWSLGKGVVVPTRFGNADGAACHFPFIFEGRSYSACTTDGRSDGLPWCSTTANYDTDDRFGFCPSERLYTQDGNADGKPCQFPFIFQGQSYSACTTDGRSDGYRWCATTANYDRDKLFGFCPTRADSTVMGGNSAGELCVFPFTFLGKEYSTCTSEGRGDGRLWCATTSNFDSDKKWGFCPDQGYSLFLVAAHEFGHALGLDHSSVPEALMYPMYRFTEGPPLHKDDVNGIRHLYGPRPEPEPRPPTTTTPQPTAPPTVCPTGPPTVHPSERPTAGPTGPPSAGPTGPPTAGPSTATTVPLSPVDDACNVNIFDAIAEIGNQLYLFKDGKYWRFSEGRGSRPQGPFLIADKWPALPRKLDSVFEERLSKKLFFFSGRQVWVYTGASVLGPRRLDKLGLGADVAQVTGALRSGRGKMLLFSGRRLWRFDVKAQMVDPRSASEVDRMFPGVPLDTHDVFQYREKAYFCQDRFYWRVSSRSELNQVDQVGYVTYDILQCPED

CC(C)[C@H](NC(=O)[C@H](CC(=O)O)NC(=O)[C@@H]1CCCN1C(=O)[C@H](CC(N)=O)NC(=O)CNC(=O)[C@H](CS)NC(=O)[C@H](CCCNC(=N)N)NC(=O)[C@@H]1CCCN1)C(=O)N[C@@H](C)C(=O)N[C@@H](CC(N)=O)C(=O)N[C@@H](Cc1ccc(O)cc1)C(=O)N[C@@H](CC(N)=O)C(=O)N[C@@H](Cc1ccccc1)C(=O)N[C@@H](Cc1ccccc1)C(=O)N1CCC[C@H]1C(=O)N[C@@H](CCCNC(=N)N)C(=O)N[C@@H](CCCCN)C(=O)N1CCC[C@H]1C(=O)N[C@@H](CCCCN)C(=O)O [19-mer]
conversion of pro-MMP-9 into prodomain and active enzyme by stromilysin (pro-MMP-9): prevents the conversion of pro-MMP-9 into the prodomain and the active enzyme | fibroblast growth (OD 490 nm) versus control ([1]; 1×10^−4 M): even greater cell growth | fibroblast growth (OD 490 nm) versus control ([1]; 1×10^−5 M): significantly greater cell density | fibroblast growth (OD 490 nm) versus control ([1]; 1×10^−6 M): a small amount of cell proliferation | percent of migrated NHDF compared to plasma fibronectin positive control ([2]; 100 μg/mL peptide, three hours): 46%±3% | percent of migrated NHDF compared to plasma fibronectin positive control ([2]; 100 μg/mL peptide, three hours, listed as 19-mer peptide): 46±3% | percent of migrated NHDF compared to plasma fibronectin positive control ([2]; 1000 μg/mL peptide, three hours): 55%±3% | percent of migrated NHDF compared to plasma fibronectin positive control ([2]; 1000 μg/mL peptide, three hours, listed as 19-mer peptide): 55±3% | percent of migrated NHDF compared to plasma fibronectin positive control ([2]; concentrations below 100 μg/mL): about 20%
